PMC7059793, “Novel Chemical Scaffolds to Inhibit the Neutral Amino Acid Transporter B^0AT1 (SLC6A19), a Potential Target to Treat Metabolic Diseases” (Frontiers in Pharmacology, 2020)

Legend:
B^0AT1 [1] = target: T1, B^0AT1 (Homo sapiens, UniProt Q695T7); assay: Mode of inhibition: leucine uptake kinetics at three inhibitor concentrations, FLIPR, Eadie-Hofstee; type: cell-based; details: CHO-BC cells
T1 construct: expressed in transfected cells
T1 sequence (Q695T7 1-634): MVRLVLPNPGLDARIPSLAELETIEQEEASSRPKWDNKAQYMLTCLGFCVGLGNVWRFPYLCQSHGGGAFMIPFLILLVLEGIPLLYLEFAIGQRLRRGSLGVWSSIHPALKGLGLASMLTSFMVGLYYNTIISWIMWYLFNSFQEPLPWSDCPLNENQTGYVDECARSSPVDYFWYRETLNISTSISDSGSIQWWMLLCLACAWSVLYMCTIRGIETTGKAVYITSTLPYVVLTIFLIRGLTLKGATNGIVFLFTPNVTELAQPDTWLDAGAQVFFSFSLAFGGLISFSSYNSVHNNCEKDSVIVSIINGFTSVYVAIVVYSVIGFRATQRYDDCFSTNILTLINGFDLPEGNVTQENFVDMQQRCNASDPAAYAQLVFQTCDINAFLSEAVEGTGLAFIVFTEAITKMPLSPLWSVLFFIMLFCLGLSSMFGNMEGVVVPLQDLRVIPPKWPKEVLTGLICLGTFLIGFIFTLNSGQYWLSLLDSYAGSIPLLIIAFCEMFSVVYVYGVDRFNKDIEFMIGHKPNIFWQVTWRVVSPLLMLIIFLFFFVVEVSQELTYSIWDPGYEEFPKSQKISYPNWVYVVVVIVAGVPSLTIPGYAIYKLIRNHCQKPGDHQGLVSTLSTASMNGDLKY
T1 sequence (Q9HBJ8 15-222 partner): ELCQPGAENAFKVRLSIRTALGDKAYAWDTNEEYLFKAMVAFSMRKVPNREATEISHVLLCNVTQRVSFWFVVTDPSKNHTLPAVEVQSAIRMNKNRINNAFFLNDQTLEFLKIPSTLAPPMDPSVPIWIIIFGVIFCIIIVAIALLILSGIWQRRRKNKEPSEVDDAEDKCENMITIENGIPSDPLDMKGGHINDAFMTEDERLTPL
Excerpt: To understand the mode of inhibition, we determined KM-values at three different inhibitor concentrations using FLIPR assay and plotted Eadie-Hofstee transformed data ( Figure 5 ). Fully parallel lines indicate a change of […], while fully converging lines (at x = 0; y = Vmax) indicate a change of KM only with increasing concentrations of the inhibitor. […] To rationalize the mode of inhibition, we performed docking studies using a homology model of B^0AT1 based on the outside-open conformation of LeuT. […] In the homology structure the two Na^+ are shown as yellow spheres. Both, LeuT Na^+-site 1 and -site 2 are conserved in B^0AT1, but only one site is used functionally. This is most likely site 1 as it binds the α-carboxyl-group of the amino acids ([O’mara et al., 2006]). […] Many transport inhibitors are substrate analogues that are too large to fit into the occluded substrate binding cavity, thereby blocking the conformational change required for transport ([Broer, 2018]). […] Instead the compounds preferred binding to different sites in the vestibule, including the proposed Substrate-binding site 2 ([Shi et al., 2008]), which was the preferred docking site for compound E4. In the outside open conformation, the volume of the binding site increases, encompassing an orthostatic binding site ( Figure 5H , orange), occupied by E4, E18, or the substrate and an allosteric binding site ( Figure 5H , blue), which is compatible with substrate binding.
Figure 5 Mechanistic aspects of B^0AT1 inhibitors. Inhibition of B^0AT1 by compounds E4 (A), E18 (B) and CB3 (C) (n = 3, e = 3) was determined by FLIPR assay in CHO-BC cells. To determine the mode of inhibition, the kinetic properties of leucine uptake were determined in the presence of three different inhibitor concentrations. Docking poses of compounds E4 (D), E18 (E) and CB3 (F) are shown for comparison. Amino acid side-chains of the binding pocket are shown in green, cosubstrate Na^+ 1 is shown in yellow (foreground), Na^+ 2 is only partially visible in the background and may not exist in B^0AT1. […]

B^0AT1 [2] = target: T1, B^0AT1; assay: FLIPR assay with inhibitors alone in the absence of substrate (substrate test) in CHO-BC cells; type: cell-based; details: 30 μM, baseline 100 RFU
Experimental: Membrane depolarisation induced by amino acid transport was monitored using a FLIPR® kit (Molecular Devices, R8042 BLUE DYE). Before the assay, CHO-BC cells were seeded out at a density of 60,000 cells/well and maintained in a flat transparent bottom 96-well plate (Corning) overnight. After washing three times with Hank’s balanced salt solution (136.6 mM NaCl, 5.4 mM KCl, 0.44 mM KH2PO4, 2.7mM Na2HPO4, 1.26mM CaCl2, 0.5mM MgCl2, 0.4 mM MgSO4, 10mM HEPES, pH 7.5, supplemented with 5 mM glucose, abbreviated HBSS + G), cells in each well were incubated for 30 min at room temperature in 50 µl of HBSS pH 7.5 containing 5 mM glucose and compounds as indicated, together with 50 µl of dye-loading buffer provided with the kit. […] Fluorescence was detected at room temperature using a PerkinElmer multimode Plate Reader, with an excitation wavelength of 530 nm and emission wavelength of 565 nm.
Figure 6 Specificity and efficacy of B^0AT1 inhibitors. […] Although structurally unrelated to the substrates of the transporter, compounds E4, E18, and CB3 are highly specific.

Mode of inhibition (B^0AT1 [1])	SMILES	Fluorescence signal when tested alone (no substrate) (B^0AT1 [2])
more mixed model	Cc1cc(C(=O)Nc2ccc(Cl)cc2C(F)(F)F)no1 [CB3]	did not increase fluorescence above the baseline
largely competitive mode of inhibition	Cc1cc(OCC(=O)NC(C)C)cc(C)c1Cl [Compound E4]	did not increase fluorescence above the baseline
largely competitive mode of inhibition	COc1ccccc1Nc1nc2ccccc2s1 [Compound E18]	did not increase fluorescence above the baseline
